In brackets after ≈: the same amount, converted by molar mass. Counter-ions that a name gives are not always drawn.
Assay: Solubility in fasted-state simulated colonic fluid (FaSSCoF) at pH 6.5
Type: physicochemical
Conditions: 25 °C, pH 6.5, fassgf or other biorelevant, thermodynamic from solid
Method: The solubilities of compounds of the invention in FaSSCoF at pH 6.5 are determined using a modification of a previously-reported procedure (Vertzoni, M., et al. Pharm. Res. 2010, 27, 2187-2196). In place of the bile salt extract employed in the original procedure (which extract is no longer available), the modified procedure uses a mixture of sodium taurochlorate (0.15 g), glycocholic acid (0.15 g), ursodeoxycholic acid (0.05 g), cholic acid (0.05 g), and glycodeoxycholic acid (0.05 g). These five bile acids are ground together with a mortar and pestle to produce a fine white powder that is incorporated into the FaSSCoF, as outlined below.
Tris(hydroxymethyl)aminomethane (Tris; 0.275 g) and maleic acid (0.44 g) are dissolved in water (35 mL) to give a solution whose pH is adjusted to 6.5 by treatment with 0.5M NaOH (ca. 12 mL). The solution is then made up to 50 mL with water. A portion of this Tris/maleate buffer solution (ca. 25 mL) is added to a 0.5 L round-bottomed flask, before being treated with 0.00565 g of the bile acid mixture described above. Solutions of phosphatidylcholine (0.0111 g) in DCM (0.15 mL) and palmitic acid (0.0013 g) in DCM (0.15 mL) are added, then the organic solvent is evaporated off under reduced pressure at 40° C. until a clear solution, with no perceptible DCM odour, is achieved. The volume of the evaporated solution is adjusted to 50 mL by addition of the remainder of Tris/maleate buffer, then BSA (0.115 g) is added, before being dissolved by gentle agitation.
Test compounds are suspended in the pH 6.5 FaSSCoF medium to give a maximum final concentration of 2-10 mg/mL. The suspensions are equilibrated at 25° C. for 24 h, before being filtered through a glass fibre C filter. The filtrates are then diluted as appropriate for injection and quantification by HPLC with reference to a standard. Different volumes of the standard, diluted and undiluted sample solutions are injected and the solubilities are calculated using the peak areas determined by integration of the peak found at the same retention time as the principal peak in the standard injection.

[1] = pH 6.5 FaSSCoF Solubility (mg/mL) Run 1
[2] = pH 6.5 FaSSCoF Solubility (mg/mL) Run 2

| SMILES | solubility thermodynamic at 24 h [1] [µg/mL] | solubility thermodynamic at 24 h [2] [µg/mL] | solubility thermodynamic at 24 h (pH 6.5 FaSSCoF Solubility (mg/mL) Run 3) [µg/mL] | solubility thermodynamic at 24 h (pH 6.5 FaSSCoF Solubility (mg/mL) Run 4) [µg/mL] |
| --- | --- | --- | --- | --- |
| COc1c(NC(=O)Nc2ccc(Oc3ccnc(Nc4ccc(C(=O)O)c(N(C)C)c4)c3)c3ccccc23)cc(C(C)(C)C)cc1NS(C)(=O)=O [17(am), 4-[[4-[[4-[[5-tert-butyl-3-(methanesulfonamido)-2-methoxy-phenyl]carbamoylamino]-1-naphthyl]oxy]-2-pyridyl]amino]-2-(dimethylamino)benzoic acid] | 10 (≈ 14 µM) | 12 (≈ 16.8 µM) |  |  |
| COc1cc(Nc2cc(Oc3ccc(NC(=O)Nc4cc(C(C)(C)C)cc(NS(C)(=O)=O)c4OC)c4ccccc34)ccn2)ccc1C(=O)NCC(=O)O [17(ar) (hydrochloride salt), 2-(4-((4-((4-(3-(5-(tert-Butyl)-2-methoxy-3-(methylsulfonamido)phenyl)ureido)naphthalen-1-yl)oxy)pyridin-2-yl)amino)-2-methoxybenzamido)acetic acid] | 204 | 198 |  |  |
| COc1cc(Nc2cc(Oc3ccc(NC(=O)Nc4cc(C(C)(C)C)cc(NS(C)(=O)=O)c4OC)c4ccccc34)ccn2)cc(OC)c1C(=O)NCCC1CCN(C)CC1 [17(at), 4-((4-((4-(3-(5-(tert-Butyl)-2-methoxy-3-(methylsulfonamido)phenyl)ureido)naphthalen-1-yl)oxy)pyridin-2-yl)amino)-2,6-dimethoxy-N-(2-(1-methylpiperidin-4-yl)ethyl)benzamide] | 9 (≈ 10.5 µM) | 9 (≈ 10.5 µM) |  |  |
| COc1cc(Nc2cc(Oc3ccc(NC(=O)Nc4cc(C(C)(C)C)cc(NS(C)(=O)=O)c4OC)c4ccccc34)ccn2)ccc1C(=O)NCCC(=O)O [17(ay) (hydrochloride salt), 3-(4-((4-((4-(3-(5-(tert-Butyl)-2-methoxy-3-(methylsulfonamido)phenyl)ureido)-naphthalen-1-yl)oxy)pyridin-2-yl)amino)-2-methoxybenzamido)propanoic acid] | 29 | 28 |  |  |
| COc1cc(Nc2cc(Oc3ccc(NC(=O)Nc4cc(C(C)(C)C)cc(NS(C)(=O)=O)c4OC)c4ccccc34)ccn2)ccc1C(=O)N[C@@H](CO)C(=O)O [17(bj) (sodium salt), (S)-2-(4-((4-((4-(3-(5-(tert-Butyl)-2-methoxy-3-(methylsulfonamido)phenyl)ureido)-naphthalen-1-yl)oxy)pyridin-2-yl)amino)-2-methoxybenzamido)-3-hydroxypropanoic acid] | 1310 |  |  |  |
| CCC(=O)NS(=O)(=O)c1ccc(Nc2nccc(Oc3ccc(NC(=O)Nc4cc(C(C)(C)C)cc(NS(C)(=O)=O)c4OC)c4ccccc34)n2)cc1OC [17(bk) (sodium salt), N-((4-((4-((4-(3-(5-(tert-Butyl)-2-methoxy-3-(methylsulfonamido)phenyl)ureido)-naphthalen-1-yl)oxy)pyrimidin-2-yl)amino)-2-methoxyphenyl)sulfonyl)propionamide] | 42 | 37 |  |  |

Further lines, results first:

| solubility thermodynamic at 24 h [1] [µg/mL] | solubility thermodynamic at 24 h [2] [µg/mL] | solubility thermodynamic at 24 h (pH 6.5 FaSSCoF Solubility (mg/mL) Run 3) [µg/mL] | solubility thermodynamic at 24 h (pH 6.5 FaSSCoF Solubility (mg/mL) Run 4) [µg/mL] | SMILES |
| --- | --- | --- | --- | --- |
| 8 (≈ 10.8 µM) | 6 (≈ 8.08 µM) |  |  | COc1cc(Nc2cc(Oc3ccc(NC(=O)Nc4cc(C(C)(C)C)cc(NS(C)(=O)=O)c4OC)c4ccccc34)ccn2)ccc1C(=O)NCCO [17(bn), 4-((4-((4-(3-(5-(tert-Butyl)-2-methoxy-3-(methylsulfonamido)phenyl)ureido)naphthalen-1-yl)oxy)pyridin-2-yl)amino)-N-(2-hydroxyethyl)-2-methoxybenzamide] |
| 9 (≈ 10.5 µM) | 8 (≈ 9.29 µM) |  |  | COc1cc(Nc2cc(Oc3ccc(NC(=O)Nc4cc(C(C)(C)C)cc(NS(C)(=O)=O)c4OC)c4ccccc34)ccn2)ccc1C(=O)N[C@H]1C(O)O[C@H](CO)[C@@H](O)[C@@H]1O (stereo partly drawn) [17(br), 4-((4-((4-(3-(5-(tert-Butyl)-2-methoxy-3-(methylsulfonamido)phenyl)ureido)naphthalen-1-yl)oxy)pyridin-2-yl)amino)-2-methoxy-N-((3R,4R,5S,6R)-2,4,5-trihydroxy-6-(hydroxymethyl)tetrahydro-2H-pyran-3-yl)benzamide] |
| 6 | 6 |  |  | COc1cc(Nc2cc(Oc3ccc(NC(=O)Nc4cc(C(C)(C)C)cc(NS(C)(=O)=O)c4OC)c4ccccc34)ccn2)ccc1C(=O)NCCCC[C@H](N)C(=O)O [17(bu) (dihydrochloride salt), (S)-2-Amino-6-(4-((4-((4-(3-(5-(tert-butyl)-2-methoxy-3-(methylsulfonamido)phenyl)-ureido)naphthalen-1-yl)oxy)pyridin-2-yl)amino)-2-methoxybenzamido)hexanoic acid] |
| 2 (≈ 2.32 µM) | 3 (≈ 3.48 µM) |  |  | COc1cc(Nc2cc(Oc3ccc(NC(=O)Nc4cc(C(C)(C)C)cc(NS(C)(=O)=O)c4OC)c4ccccc34)ccn2)ccc1C(=O)NC[C@H](O)[C@@H](O)[C@H](O)[C@H](O)CO [17(bw), 4-((4-((4-(3-(5-(tert-Butyl)-2-methoxy-3-(methylsulfonamido)phenyl)ureido)naphthalen-1-yl)oxy)pyridin-2-yl)amino)-2-methoxy-N-((2S,3R,4R,5R)-2,3,4,5,6-pentahydroxyhexyl)benzamide] |
| 21 (≈ 25.4 µM) | 26 (≈ 31.5 µM) | 14 (≈ 16.9 µM) | 19 (≈ 23 µM) | COc1cc(Nc2cc(Oc3ccc(NC(=O)Nc4cc(C(C)(C)C)cc(NS(C)(=O)=O)c4OC)c4ccccc34)ccn2)cc(OC)c1C(=O)NC1CCN(C)CC1 [17(bz), 4-((4-((4-(3-(5-(tert-Butyl)-2-methoxy-3-(methylsulfonamido)phenyl)ureido)naphthalen-1-yl)oxy)pyridin-2-yl)amino)-2,6-dimethoxy-N-(1-methylpiperidin-4-yl)benzamide] |
| 51 | 49 |  |  | COc1cc(Nc2cc(Oc3ccc(NC(=O)Nc4cc(C(C)(C)C)cc(NS(C)(=O)=O)c4OC)c4ccccc34)ccn2)ccc1C(=O)NCCNC(=O)CCC(=O)O [17(cd) (hydrochloride salt), 4-((2-(4-((4-((4-(3-(5-(tert-Butyl)-2-methoxy-3-(methylsulfonamido)phenyl)ureido)-naphthalen-1-yl)oxy)pyridin-2-yl)amino)-2-methoxybenzamido)ethyl)amino)-4-oxobutanoic acid] |
| 3 (≈ 3.28 µM) | 1 (≈ 1.09 µM) |  |  | COc1cc(Nc2cc(Oc3ccc(NC(=O)Nc4cc(C(C)(C)C)cc(NS(C)(=O)=O)c4OC)c4ccccc34)ccn2)ccc1C(=O)NCCC(=O)N1C[C@H](O)[C@@H](O)[C@H](O)[C@H]1CO [17(cf), 4-((4-((4-(3-(5-(tert-Butyl)-2-methoxy-3-(methylsulfonamido)phenyl)ureido)naphthalen-1-yl)oxy)pyridin-2-yl)amino)-2-methoxy-N-(3-oxo-3-((2R,3R,4R,5S)-3,4,5-trihydroxy-2-(hydroxymethyl)piperidin-1-yl)propyl)benzamide] |
| 2 (≈ 2.3 µM) |  |  |  | COc1cc(Nc2cc(Oc3ccc(NC(=O)Nc4cc(C(C)(C)C)cc(NS(C)(=O)=O)c4OC)c4ccccc34)ccn2)cc(OC)c1C(=O)N1CCN(CCN(C)C)CC1 [17(cg), N-(5-(tert-Butyl)-3-(3-(4-((2-((4-(4-(2-(dimethylamino)ethyl)piperazine-1-carbonyl)-3,5-dimethoxyphenyl)amino)pyridin-4-yl)oxy)naphthalen-1-yl)ureido)-2-methoxyphenyl)methane sulfonamide] |
| 6 (≈ 6.7 µM) | 6 (≈ 6.7 µM) |  |  | COc1cc(Nc2cc(Oc3ccc(NC(=O)Nc4cc(C(C)(C)C)cc(NS(C)(=O)=O)c4OC)c4ccccc34)ccn2)ccc1C(=O)NCCN1CCN(C(=O)CN(C)C)CC1 [17(cj), 4-((4-((4-(3-(5-(tert-Butyl)-2-methoxy-3-(methylsulfonamido)phenyl)ureido)naphthalen-1-yl)oxy)pyridin-2-yl)amino)-N-(2-(4-(2-(dimethylamino)acetyl)piperazin-1-yl)ethyl)-2-methoxybenzamide] |
| 25 (≈ 29.5 µM) | 17 (≈ 20.1 µM) |  |  | COc1cc(Nc2cc(Oc3ccc(NC(=O)Nc4cc(C(C)(C)C)cc(NS(C)(=O)=O)c4OC)c4ccccc34)ccn2)cc(OC)c1C(=O)NCC(CO)(CO)CO [17(cn), 4-((4-((4-(3-(5-(tert-Butyl)-2-methoxy-3-(methylsulfonamido)phenyl)ureido)naphthalen-1-yl)oxy)pyridin-2-yl)amino)-N-(3-hydroxy-2,2-bis(hydroxymethyl)propyl)-2,6-dimethoxybenzamide] |

Reference: patent US9751837B2, “Kinase inhibitors” (RESPIVERT LIMITED, priority 2014, dated 2017)
